Where two headings read alike, the source gives them in different places.
Tests used:
ADV7 = assay: Inhibition of ADV7-induced cytopathic effects in HeLa cells (MTT); format: cell-based, adenovirus type 7; details: for EC50 / inhibition at 160 µM: Human mastadenovirus B; for EC50: 100 TCID50 ADV7, 48 h, MTT, read-out: EC50 (50% protection from virus-induced cytopathogenicity), ADV7; for protection against ADV7-induced CPEs (microscopy): 120 μM W-9, 160 μM W-13, 160 μM W-15; for inhibition at 160 µM: read-out: inhibition of ADV7 infections
Method: (§1) Figure 1 Antiviral activities of novel 2-benzoxyl-phenylpyridine derivatives against CVB3 and ADV7. […] Hep-2 or HeLa cells were infected with 100 TCID50 of CVB3 or ADV7 for 1.5 h at 37 °C. Then, the inocula were aspirated and the cells were incubated with various concentrations of test compounds for 48 h. Cell viability was determined using the MTT assay. (b) Images showing the morphology of Hep-2 and HeLa cells treated with 120 μM W-9, 160 μM W-13, or 160 μM W-15 (magnification, 20×).
(§2) The antiviral activities of compounds against CVB3 and ADV7 were determined by measuring their inhibition of virus-induced CPEs in acutely infected Hep-2 and HeLa cells, respectively. Confluent cell monolayers in 96-well plates were infected with 100 TCID50 of CVB3 or ADV7 for 1.5 h at 37 °C, inocula were aspirated, and the cells then were incubated with various concentrations of compounds at 37 °C, 5% CO2, for 48 h. CPEs were observed by microscopy and the viability of cells was determined using MTT assays. The concentrations of test compounds required to achieve 50% protection from virus-induced cytopathogenicity (EC50 values) were determined. Adverse effects of tested compounds on host cells were also assessed using the MTT method after exposing uninfected cells to various concentrations of test compounds for 48 h at 37 °C. The CC50 values of compounds were calculated using SPSS software and selectivity indices were the ratio of CC50:EC50. Each experiment was performed in triplicate and at least three times, independently.

CVB3 [1] = assay: Inhibition of CVB3-induced cytopathic effects in Hep-2 cells (MTT); format: cell-based, Coxsackievirus B3; details: for EC50 / inhibition at 160 µM: Enterovirus B; for EC50: 100 TCID50 CVB3, 48 h, MTT, read-out: EC50 (50% protection from virus-induced cytopathogenicity), CVB3; for protection against CVB3-induced CPEs (microscopy): 120 μM W-9, 160 μM W-13, 160 μM W-15; for inhibition at 160 µM: CVB3, at 160 μM, read-out: inhibition of CVB3 infections
Method: as §1, §2

CVB3 RNA = CVB3 RNA by quantitative reverse transcription-PCR; format: cell-based, Coxsackievirus B3; details: 160 μM, Hep-2 cells, 32 h pi, normalized to GAPDH
Method: (§3) To further investigate the effects of these compounds on CVB3 replication, we analyzed the efficacy of representative compound, W13, in inhibiting viral progeny yield, RNA synthesis, and protein translation. Infected cells treated with or without 160 μM W-13 were harvested after 4 h, 8 h, 16 h and 32 h, viral progeny yields were determined using the Reed–Muench method, and quantitative reverse transcription polymerase chain reaction analysis of harvested cells were conducted, to evaluate the relative amounts of viral RNA. […] Figure 5b illustrates the efficacy of W-13 in inhibiting viral RNA synthesis. Viral RNA became detectable in the virus control group during the first 4 h pi, followed by significant increases at subsequent time points.
Figure 5 Effect of W13 on CVB3 replication in Hep-2 cells. Hep-2 cells infected with 100 TCID50 CVB3 were incubated in the absence or presence of 160 µM W13 and harvested at the indicated times post-infection. (a) Progeny virus yields were determined. (b) Viral RNA levels were measured by analysis of total RNA. GAPDH was amplified and the resulting data was used for normalization. […] (c) CVB3 protein levels were determined by indirect immunofluorescence, using the mouse anti-coxsackie virus B3 monoclonal antibody, MAB948, and an alexa-fluor-488-conjugated affiniPure goat anti-mouse IgG (H + L), after incubation with W13 for 24 h. […]

CVB3 [2] = assay: Time course of CVB3 progeny yield in Hep-2 cells; format: cell-based, Coxsackievirus B3; details: 160 μM, 32 h pi
Method: as §3, with “Viral RNA became detectable in the virus control group during the first 4 h pi, followed by significant increases at subsequent time points.” left out
Figure 5 Effect of W13 on CVB3 replication in Hep-2 cells. […] (a) Progeny virus yields were determined. (b) Viral RNA levels were measured by analysis of total RNA. […] (c) CVB3 protein levels were determined by indirect immunofluorescence, using the mouse anti-coxsackie virus B3 monoclonal antibody, MAB948, and an alexa-fluor-488-conjugated affiniPure goat anti-mouse IgG (H + L), after incubation with W13 for 24 h. […]
CVB3 or ADV7 suspensions, serially diluted 10-fold with DMEM containing 2% FBS (DMEM maintenance medium, MM), were inoculated to Hep-2 or HeLa cells in 96-well plates. […] After 2 days, infected cells were monitored for CPEs and virus titers were calculated using the Reed–Muench method.

CVB3 protein = CVB3 protein by indirect immunofluorescence; format: cell-based, Coxsackievirus B3; details: 160 μM, Hep-2 cells
Method: Figure 5 Effect of W13 on CVB3 replication in Hep-2 cells. Hep-2 cells infected with 100 TCID50 CVB3 were incubated in the absence or presence of 160 µM W13 and harvested at the indicated times post-infection. (a) Progeny virus yields were determined. (b) Viral RNA levels were measured by analysis of total RNA. GAPDH was amplified and the resulting data was used for normalization. Values represent the means ± SDs of three independent experiments. * p < 0.05; ** p < 0.01, compared with the virus control group. (c) CVB3 protein levels were determined by indirect immunofluorescence, using the mouse anti-coxsackie virus B3 monoclonal antibody, MAB948, and an alexa-fluor-488-conjugated affiniPure goat anti-mouse IgG (H + L), after incubation with W13 for 24 h. Nuclei were stained with DAPI and green foci indicate the presence of CVB3 protein.
The influence of W13 on CVB3 replication was also determined at the translational level. […] Then, intracellular viral protein was detected by indirect immunofluorescence analysis after incubation for 8, 24, and 36 h.
Hep-2 cells (1 × 10^5) were seeded in 24-well plates and incubated overnight. […] After the plates had been washed three times with 0.1% Tween-20 in PBS, they were incubated with the appropriate Alexa-Fluor-488-labeled secondary antibody (Invitrogen) and fluorescence evaluated using an OLYMPUS IX73 microscope (Tokyo, Japan).

Structure (SMILES)	SI (CC50/EC50), ADV7 (ADV7)	maximum inhibition of ADV7 (ADV7) [%]	EC50 (ADV7) [µM]	SI (CC50/EC50), CVB3 (CVB3 [1])	maximum inhibition of CVB3 (CVB3 [1]) [%]	EC50 (CVB3 [1]) [µM]	reduction of viral RNA copy numbers (CVB3 RNA)	reduction in viral replication (progeny virus titer) (CVB3 [2]) [log]	viral protein synthesis (immunofluorescence foci) (CVB3 protein)	inhibitory activity against ADV7 infection (in words) (ADV7)	protection against ADV7-induced CPEs (microscopy) (ADV7)	inhibition at 160 µM (ADV7) [%]	SI (CC50/EC50), ADV7 (ADV7; listed as W-13)	inhibitory activity against CVB3 infection (in words) (CVB3 [1])	protection against CVB3-induced CPEs (microscopy) (CVB3 [1])	inhibition at 160 µM (CVB3 [1]) [%]
NC(=O)c1ncn([C@@H]2O[C@H](CO)[C@@H](O)[C@H]2O)n1 [Ribavirin, reference compound]	7.1	72.4	114	8.3	63.0	101	–	–	–	–	–	–	–	–	–	–
Cc1ccc(OC(=O)C(C)(C)C)c(-c2ccccn2)c1 [W13]	>10	–	36.4 ± 16.4	10.2	–	41.6 ± 11.5	approximately 500 fold	~3.0	suppressed	significant inhibitory activities	almost complete protection	83.9	> 10	significant inhibitory activities	almost complete protection	92.8
CC(=O)Oc1ccc(-c2ccccn2)c(OC(=O)c2ccccc2)c1 [W15]	12.2	–	65.2 ± 21.6	6.5	–	69.7 ± 15	–	–	–	significant inhibitory activities	almost complete protection	89.4	–	significant inhibitory activities	almost complete protection	90
O=C(Oc1cc(Cl)ccc1-c1ccccn1)c1ccccc1 [W9]	9.8	–	27.1 ± 9	6.0	–	24.6 ± 8.7	–	–	–	significant inhibitory activities	almost complete protection	81.4	–	significant inhibitory activities	almost complete protection	73
